In ChEMBL document CHEMBL5512613, “Design and synthesis of novel 3-amino-5-phenylpyrazole derivatives as tubulin polymerization inhibitors targeting the colchicine-binding site” (Eur J Med Chem, 2024):
Active and inactive are the calls of the source. No cut-off for these calls is given here.

Legend:
MCF7 [1] = assay: Antiproliferative activity against human MCF7 cells assessed as inhibition of cell growth incubated for 48 hrs by MTT assay; type: functional, cell-based; settings: MCF7, 48 h
A549 = assay: Antiproliferative activity against human A549 cells assessed as inhibition of cell growth incubated for 48 hrs by MTT assay; type: functional, cell-based; settings: A549, 48 h
MDA-MB-231 = assay: Antiproliferative activity against human MDA-MB-231 cells assessed as inhibition of cell growth incubated for 48 hrs by MTT assay; type: functional, cell-based; settings: MDA-MB-231, 48 h
HT-29 = assay: Antiproliferative activity against human HT-29 cells assessed as inhibition of cell growth incubated for 48 hrs by MTT assay; type: functional, cell-based; settings: HT-29, 48 h
HeLa = assay: Antiproliferative activity against human HeLa cells assessed as inhibition of cell growth incubated for 48 hrs by MTT assay; type: functional, cell-based
[2] = Cytotoxicity against human L02 cells assessed as inhibition of cell growth incubated for 48 hrs by MTT assay; type: toxicity, cell-based
MCF7 [3] = assay: Inhibition of colony formation in human MCF7 cells at 10 nM incubated for 2 weeks in 5% CO2 at 37 degC by crystal violet staining based analysis; type: functional, cell-based
Tubulin (Homo sapiens) = Tubulin (Homo sapiens) (UniProt P68371+Q9H4B7+P0DPH7+P68366+Q13509+Q71U36+P04350+Q3ZCM7+P07437+P68363+Q9BQE3+Q6PEY2+Q13885+Q9BVA1+Q9BUF5); assay: Stabilization of tubulin in human MCF7 cells assessed as stable and fascicled microtubules at 25 nM incubated for 8 hrs by DAPI staining based immunofluorescence assay; type: cell-based
MCF7 [4] = assay: Antitumor activity against human MCF7 cells xenografted in BALB/c mouse assessed as inhibition of tumor growth by measuring decrease in tumor weight at 10 mg/kg, ip administered every 3 days for 21 days; type: functional; settings: MCF7, 504 h, time 21 day, read-out: TGI

IC50 (MCF7 [1]) | IC50 (A549) | IC50 (MDA-MB-231) | IC50 (HT-29) | IC50 (HeLa) | Activity (Tubulin (Homo sapiens)) | SMILES | IC50 at 48 h [2] | inhibition (MCF7 [3]) | inhibition in vivo at 10 mg/kg (MCF7 [4])
4440 nM | 3840 nM | 1970 nM | > 5000 nM | > 5000 nM | – | Nc1cc(-c2ccc(F)cc2)n(C(=O)c2ccc3c(c2)OCO3)n1 | 6060 nM | – | –
150 nM | 2530 nM | 390 nM | 60 nM | 130 nM | – | COc1cc(C(=O)n2nc(N)cc2-c2ccc(F)cc2)cc(OC)c1OC | 6240 nM | – | –
2770 nM | 1360 nM | 2980 nM | 4350 nM | 2550 nM | – | COc1cc(C(=O)n2nc(N)cc2-c2ccc(Cl)cc2)cc(OC)c1OC | 2730 nM | – | –
> 5000 nM | > 5000 nM | > 5000 nM | > 5000 nM | > 5000 nM | – | COc1ccc(C(=O)n2nc(N)cc2-c2ccc(F)cc2)cc1OC | > 10000 nM | – | –
110 nM | 5180 nM | – | 850 nM | 140 nM | – | COc1cc(C(=O)n2nc(N)cc2-c2cccc(Cl)c2)cc(OC)c1OC | 1640 nM | – | –
1360 nM | 2530 nM | 3080 nM | 1850 nM | 4850 nM | – | COc1ccc(C(=O)n2nc(N)cc2-c2ccc(C)cc2)cc1OC | 5580 nM | – | –
> 5000 nM | > 5000 nM | > 5000 nM | > 5000 nM | > 5000 nM | – | COc1cccc(-c2cc(N)nn2C(=O)c2ccc3c(c2)OCO3)c1 | > 10000 nM | – | –
220 nM | – | 190 nM | 70 nM | 20 nM | Active | CC(=O)O[C@H]1C(=O)[C@@]2(C)[C@H]([C@H](OC(=O)c3ccccc3)[C@]3(O)C[C@H](OC(=O)[C@H](O)[C@@H](NC(=O)c4ccccc4)c4ccccc4)C(C)=C1C3(C)C)[C@]1(OC(C)=O)CO[C@@H]1C[C@@H]2O [PACLITAXEL] | 1730 nM | Active | 73.5%
170 nM | 780 nM | 1570 nM | 1770 nM | 560 nM | – | COc1ccc(-c2cc(N)nn2C(=O)c2cc(OC)c(OC)c(OC)c2)cc1OC | 4100 nM | – | –
180 nM | 2680 nM | 1290 nM | 1080 nM | 1540 nM | – | COc1ccc(C(=O)n2nc(N)cc2-c2ccc(Br)cc2)cc1OC | 1120 nM | – | –
> 5000 nM | > 5000 nM | > 5000 nM | > 5000 nM | > 5000 nM | – | COc1ccc(C(=O)n2nc(N)cc2-c2cccc(Cl)c2)cc1OC | > 10000 nM | – | –
1190 nM | 2770 nM | 2160 nM | 3570 nM | 4930 nM | – | COc1ccc(-c2cc(N)nn2C(=O)c2ccc3c(c2)OCO3)cc1OC | 2090 nM | – | –
120 nM | 2150 nM | 170 nM | 1920 nM | 40 nM | – | Cc1ccc(-c2cc(N)nn2C(=O)c2ccc3c(c2)OCO3)cc1 | 3900 nM | – | –
310 nM | 350 nM | 840 nM | 400 nM | 650 nM | – | COc1ccc(-c2cc(N)nn2C(=O)c2cc(OC)c(OC)c(OC)c2)cc1 | > 10000 nM | – | –
80 nM | 770 nM | 1270 nM | 1060 nM | 200 nM | – | COc1cc(C(=O)n2nc(N)cc2-c2cccc(C)c2)cc(OC)c1OC | 2810 nM | – | –
1540 nM | 1780 nM | > 5000 nM | 3910 nM | 2860 nM | – | COc1ccc(C(=O)n2nc(N)cc2-c2ccc(Cl)cc2)cc1OC | 4660 nM | – | –
120 nM | 2890 nM | 330 nM | 190 nM | 320 nM | – | COc1cc(C(=O)n2nc(N)cc2-c2cccc(F)c2)cc(OC)c1OC | 4170 nM | – | –
750 nM | 1680 nM | 3870 nM | > 5000 nM | 2790 nM | – | Nc1cc(-c2ccc(Cl)cc2)n(C(=O)c2ccc3c(c2)OCO3)n1 | > 10000 nM | – | –
2080 nM | 2430 nM | 3020 nM | 4610 nM | 620 nM | – | COc1cc(C(=O)n2nc(N)cc2-c2ccc(Br)cc2)cc(OC)c1OC | 2680 nM | – | –
1200 nM | 2970 nM | 3090 nM | > 5000 nM | > 5000 nM | – | COc1cccc(-c2cc(N)nn2C(=O)c2ccc(OC)c(OC)c2)c1 | 2610 nM | – | –
400 nM | 890 nM | 1290 nM | 160 nM | 2040 nM | – | COc1cccc(-c2cc(N)nn2C(=O)c2cc(OC)c(OC)c(OC)c2)c1 | 5680 nM | – | –
> 5000 nM | > 5000 nM | > 5000 nM | > 5000 nM | > 5000 nM | – | COc1ccc(C(=O)n2nc(N)cc2-c2ccc(OC)c(OC)c2)cc1OC | > 10000 nM | – | –
190 nM | 2180 nM | 540 nM | 280 nM | 440 nM | – | COc1cc(C(=O)n2nc(N)cc2-c2cccc(Br)c2)cc(OC)c1OC | > 10000 nM | – | –

SMILES | IC50 (MCF7 [1]) | IC50 (A549) | IC50 (MDA-MB-231) | IC50 (HT-29) | IC50 (HeLa) | Activity (Tubulin (Homo sapiens)) | IC50 at 48 h [2] | inhibition (MCF7 [3]) | inhibition in vivo at 10 mg/kg (MCF7 [4])
COc1ccc(/C=C\c2cc(OC)c(OC)c(OC)c2)cc1O [COMBRETASTATIN A4] | – | 280 nM | 110 nM | 380 nM | 90 nM | – | 3200 nM | Active | –
